Source: PMC4805204, “Robust Stimulation of W1282X-CFTR Channel Activity by a Combination of Allosteric Modulators” (PLoS ONE, 2016)

Molecular target: T1, Δ1198-CFTR (Homo sapiens, UniProt P13569)
T1 construct: NBD2 deletion construct; V1198 replaced with a termination codon
Test: inside-out macropatch clamp of HEK-293T cells, […] curcumin, order of addition with VX-770
Assay type: cell-based

T1 sequence (P13569 1-1197, stated change not applied): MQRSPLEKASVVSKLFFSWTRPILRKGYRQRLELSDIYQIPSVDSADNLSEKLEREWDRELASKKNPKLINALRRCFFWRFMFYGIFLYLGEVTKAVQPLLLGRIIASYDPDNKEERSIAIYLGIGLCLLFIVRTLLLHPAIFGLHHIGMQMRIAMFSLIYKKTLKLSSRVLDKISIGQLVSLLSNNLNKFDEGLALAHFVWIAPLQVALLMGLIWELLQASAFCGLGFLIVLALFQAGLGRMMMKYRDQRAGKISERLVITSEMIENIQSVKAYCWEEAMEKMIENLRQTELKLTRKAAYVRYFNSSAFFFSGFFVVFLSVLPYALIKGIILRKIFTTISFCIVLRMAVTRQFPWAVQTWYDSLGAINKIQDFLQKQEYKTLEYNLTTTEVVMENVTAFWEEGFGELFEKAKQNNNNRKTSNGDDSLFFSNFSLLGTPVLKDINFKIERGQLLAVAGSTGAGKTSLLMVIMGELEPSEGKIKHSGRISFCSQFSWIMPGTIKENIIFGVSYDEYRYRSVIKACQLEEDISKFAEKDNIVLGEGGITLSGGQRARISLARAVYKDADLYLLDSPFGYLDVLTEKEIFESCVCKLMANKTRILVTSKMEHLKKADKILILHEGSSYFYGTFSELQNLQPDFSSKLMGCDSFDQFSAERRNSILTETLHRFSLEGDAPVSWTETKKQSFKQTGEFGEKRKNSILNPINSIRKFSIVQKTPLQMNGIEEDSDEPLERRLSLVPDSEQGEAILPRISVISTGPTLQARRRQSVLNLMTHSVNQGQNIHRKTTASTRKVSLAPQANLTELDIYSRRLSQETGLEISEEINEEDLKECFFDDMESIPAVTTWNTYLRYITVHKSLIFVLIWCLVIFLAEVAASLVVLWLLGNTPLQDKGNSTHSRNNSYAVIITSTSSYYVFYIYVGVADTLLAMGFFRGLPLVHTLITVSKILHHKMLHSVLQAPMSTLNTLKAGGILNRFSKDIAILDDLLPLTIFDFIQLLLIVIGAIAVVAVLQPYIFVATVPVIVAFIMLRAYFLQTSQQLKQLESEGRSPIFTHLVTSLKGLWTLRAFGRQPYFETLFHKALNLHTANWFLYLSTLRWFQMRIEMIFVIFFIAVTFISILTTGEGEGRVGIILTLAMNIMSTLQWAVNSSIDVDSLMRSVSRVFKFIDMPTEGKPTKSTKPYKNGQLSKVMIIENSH

## COc1cc(/C=C/C(=O)CC(=O)/C=C/c2ccc(O)c(OC)c2)ccc1O [curcumin]
  inside-out macropatch clamp of HEK-293T cells, 30 uM curcumin, order of addition: Mean percent stimulation of W1282X-CFTR or Δ1198-CFTR current by each compound alone
